Assay results as given in ChEMBL document CHEMBL6121016, “Design, Synthesis, and Biological Evaluation of 1,3,4-Thiadiazole Derivatives as Novel Potent Peptide Deformylase Inhibitors for Combating Drug-Resistant Gram-Positive and -Negative Bacteria” (J Med Chem, 2025).
Converted amounts (≈) assume the structure as drawn. The source made the active and inactive calls. The calls are words filed in the database; no cut-off is given here.

What was measured:
[1] = Acute toxicity in KM mouse infected with drug-resistant Acinetobacter baumannii assessed as pathological changes in lungs at 40 mg/kg by HE staining based analysis; type: organism-based; settings: in vivo
[2] = Acute toxicity in KM mouse infected with drug-resistant Acinetobacter baumannii assessed as survival rate at 40 mg/kg; type: organism-based; settings: in vivo
Cell membrane [3] = experiment: Induction of cell membrane disruption in Acinetobacter baumannii assessed as outer membrane integrity by NucGreen/EthD-III costain fluorescent assay; type: subcellular
[4] = Acute toxicity in normal mouse assessed as death at 200 mg/kg, iv observed for 14 days; type: organism-based; settings: in vivo, 336 h, time 14 day
Acinetobacter baumannii [5] = experiment: Anti-biofilm activity against of Acinetobacter baumannii assessed as growth inhibition at 2 microg/ml incubated for 24 hrs by microplate reader analysis relative to control; type: functional
Escherichia coli [6] = experiment: Potency index, ratio of LBM415 MIC to test compound MIC for antibacterial activity against Escherichia coli after 16 to 18 hrs by broth microdilution method; type: functional; settings: time 16-18 hrs
Cell membrane [7] = experiment: Induction of cell membrane disruption in methicillin-resistant Staphylococcus aureus assessed as […] integrity by NucGreen/EthD-III costain fluorescent assay; type: subcellular
Staphylococcus aureus [8] = experiment: Anti-biofilm activity against mature methicillin-resistant Staphylococcus aureus at 8 microg/ml incubated for 24 hrs by microplate reader analysis; type: functional; settings: dose 8 µg/ml
Escherichia coli [9] = experiment: Antibacterial activity against Escherichia coli ATCC 10663 after 16 to 18 hrs by broth microdilution method; type: functional; settings: time 16-18 hrs
Acinetobacter baumannii [10] = experiment: Potency index, ratio of ciprofloxacin MIC to test compound MIC for antibacterial activity against drug-resistant Acinetobacter baumannii after 16 to 18 hrs by broth microdilution method; type: functional; settings: time 16-18 hrs
Staphylococcus aureus [11] = experiment: Antibacterial activity against methicillin-susceptible Staphylococcus aureus ATCC 29213 after 16 to 18 hrs by broth microdilution method; type: functional; settings: time 16-18 hrs
Acinetobacter baumannii [12] = experiment: Antibacterial activity against Acinetobacter baumannii Bio 53272 after 16 to 18 hrs by broth microdilution method; type: functional; settings: time 16-18 hrs
Staphylococcus aureus [13] = experiment: Bactericidal activity against methicillin-resistant Staphylococcus aureus assessed as bacteriostatic efficiency at 0.25 microg/mL incubated for 24 hrs by time killing analysis relative to control; type: functional; settings: dose 0.25 µg/ml

SMILES: CCCC[C@H](CN(O)C=O)C(=O)N1CCC[C@H]1c1nnc(-c2cccs2)s1
- Activity [1]: Non-toxic
- Activity [2]: Non-toxic
- Activity (Cell membrane [3]): Active
- Activity [4]: Non-toxic
- inhibition at 2 µg/mL (Acinetobacter baumannii [5]): 50%
- Ratio (Escherichia coli [6]): >16
- Activity (Cell membrane [7]): Active
- Activity (Staphylococcus aureus [8]): 60%
- MIC (Escherichia coli [9]): 8 µg/mL (≈ 19.6 µM)
- Ratio (Acinetobacter baumannii [10]): >64
- MIC (Staphylococcus aureus [11]): 0.25 µg/mL (≈ 0.612 µM)
- MIC (Acinetobacter baumannii [12]): 0.5 µg/mL (≈ 1.22 µM)
- Activity (Staphylococcus aureus [13]): 100%
